In patent US12286428B2 (BRISTOL-MYERS SQUIBB COMPANY, priority 2019, dated 2025) one finds IC50 data, which are given here for 25 molecules.

In one assay the target is T1, IRAK4 (Homo sapiens, UniProt Q9NWZ3).
T1 sequence (Q9NWZ3 1-460): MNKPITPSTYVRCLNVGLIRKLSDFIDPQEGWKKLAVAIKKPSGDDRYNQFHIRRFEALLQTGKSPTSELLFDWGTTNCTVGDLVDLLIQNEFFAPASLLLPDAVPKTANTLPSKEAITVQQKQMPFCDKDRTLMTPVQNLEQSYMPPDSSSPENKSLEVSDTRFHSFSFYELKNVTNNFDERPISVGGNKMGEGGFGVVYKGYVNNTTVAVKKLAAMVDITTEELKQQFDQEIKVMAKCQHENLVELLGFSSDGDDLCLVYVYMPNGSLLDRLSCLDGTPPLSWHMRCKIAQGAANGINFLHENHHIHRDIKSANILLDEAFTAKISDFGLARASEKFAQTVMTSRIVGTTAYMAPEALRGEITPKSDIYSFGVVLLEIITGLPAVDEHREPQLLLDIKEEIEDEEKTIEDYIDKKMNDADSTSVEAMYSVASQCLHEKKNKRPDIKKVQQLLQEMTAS
Kind of assay: IRAK4 Inhibition Assay. It counts as biochemical. To be noted: ATP 500 μM; FL-IPTSPITTTYFFFKKK peptide […]; IRAK4 0.6 nM; 60 min room temperature; Caliper LABCHIP 3000. As to the method: The assays were performed in U-bottom 384-well plates. […] The reaction was initiated by the combination of IRAK4 with substrates and test compounds. The reaction mixture was incubated at room temperature for 60 min. and terminated by adding 45 μL of 35 mM EDTA to each sample. The reaction mixture was analyzed on the Caliper LABCHIP® 3000 (Caliper, Hopkinton, MA) by electrophoretic separation of the fluorescent substrate and phosphorylated product. […] The final concentrations of reagents in the assays are ATP, 500 μM; FL-[…] peptide 1.5 μM; IRAK4, 0.6 nM; and DMSO, 1.6%.

Assay [1] has as its system Human whole blood, IL-6 levels after TLR2 agonist lipoteichoic acid. Description: IRAK4 Whole Blood Assay. It counts as cell-based. The following applies: compounds 60 minutes at 37° C., lipoteichoic acid 10 μg/mL for 5 hours. As to the method:
IRAK4 Whole Blood Assay Human whole blood containing the anti-coagulant ACD-A was plated in 384-well plate (25 μL/well) and incubated with compounds for 60 minutes at 37° C. in a 5% CO2 incubator. The blood was stimulated with a TLR2 agonist, 10 μg/mL final concentration of lipoteichoic acid (Invivogen, San Diego, CA) in 25 μL RPMI (Gibco) for 5 hours in a 5% CO2 incubator. At the end of the incubation, plates were centrifuged at 2300 rpm for 5 minutes. Supernatants were harvested and analyzed for IL-6 levels by Flow Cytometry beads assay (BD Biosciences, San Jose, CA).

For the molecule `CC[C@H]1[C@@H](COc2nccc3cc(C(N)=O)c4nc(C)cn4c23)NC(=O)C1(F)F` [Example 21, 1-(((2S,3S)-3-ethyl-4,4-difluoro-5-oxopyrrolidin-2-yl)methoxy)-8-methylimidazo[1,2-a][1,7]naphthyridine-6-carboxamide], the IC50 on IRAK4 worked out at 10.7 nM; in assay [1] it was 533 nM.

For the molecule `NC(=O)c1cc2cccc(OC[C@@H]3CCC(=O)N3)c2n2ccnc12` [Example 1, (S)-9-((5-oxopyrrolidin-2-yl)methoxy)imidazo[1,2-a]quinoline-4-carboxamide], the figures for the IC50 (on IRAK4; in assay [1]) were 20.6 nM and 1420 nM, respectively.

As for `CC[C@@H]1CC(=O)N[C@@H]1COc1cccc2cc(C(N)=O)c3nnnn3c12` [Example 44, 9-(((2S,3R)-3-ethyl-5-oxopyrrolidin-2-yl)methoxy)tetrazolo[1,5-a]quinoline-4-carboxamide], the IC50 on IRAK4 was 9.6 nM; in assay [1] it was 1030 nM.

As for `CC[C@@H]1CC(=O)N[C@@H]1COc1cccc2cc(C(N)=O)c3ncnn3c12` [Example 37, 9-(((2S,3R)-3-ethyl-5-oxopyrrolidin-2-yl)methoxy)-[1,2,4]triazolo[1,5-a]quinoline-4-carboxamide], the values for the IC50 (on IRAK4; in assay [1]) were 3.4 nM and 586 nM, respectively.

On to `CC[C@@H]1[C@H](F)C(=O)N[C@@H]1COc1ccc(F)c2cc(C(N)=O)c3nccn3c12` [Example 15, 9-(((2S,3S,4S)-3-ethyl-4-fluoro-5-oxopyrrolidin-2-yl)methoxy)-6-fluoroimidazo[1,2-a]quinoline-4-carboxamide], for which the figures for the IC50 (at IRAK4; in assay [1]) were 8.2 nM and 2650 nM, respectively.

As for `CC[C@@H]1CC(=O)N[C@@H]1COc1nccc2cc(C(N)=O)c3c(c12)CCO3` [Example 54, 1-(((2S,3R)-3-ethyl-5-oxopyrrolidin-2-yl)methoxy)-8,9-dihydrofuro[2,3-h]isoquinoline-6-carboxamide], the half-maximal inhibitory concentration (IC50) on IRAK4 was found to be 13.6 nM; in assay [1] it was 1100 nM.

For the molecule `CC[C@@H]1[C@H](F)C(=O)N[C@@H]1COc1nccc2cc(C(N)=O)c3nccn3c12` [Example 17, 1-(((2S,3S,4S)-3-ethyl-4-fluoro-5-oxopyrrolidin-2-yl)methoxy)imidazo[1,2-a][1,7]naphthyridine-6-carboxamide], the IC50 at IRAK4 worked out at 4.7 nM; in assay [1], 94 nM.

With `CC[C@@H]1CC(=O)N[C@@H]1COC1=CC(F)=CC2C=C(C(N)=O)c3nccn3C12` (stereo partly drawn) [Example 57, 9-(((2S,3R)-3-ethyl-5-oxopyrrolidin-2-yl)methoxy)-7-fluoro-5a,9a-dihydroimidazo[1,2-a]quinoline-4-carboxamide], the IC50 at IRAK4 came out at 9.7 nM; in assay [1], 1460 nM.

Take `CC[C@H]1[C@@H](COc2cccc3cc(C(N)=O)c4nccn4c23)NC(=O)[C@@H]1F` [Example 4, 9-(((2S,3S,4R)-3-ethyl-4-fluoro-5-oxopyrrolidin-2-yl)methoxy)imidazo[1,2-a]quinoline-4-carboxamide]: the concentration for half-maximal inhibition (IC50) at IRAK4 was 2.6 nM; in assay [1], 593 nM.

For the molecule `CC[C@@H]1CC(=O)N[C@@H]1COc1cccc2cc(C(N)=O)n3nccc3c12` [Example 35, 10-(((2S,3R)-3-ethyl-5-oxopyrrolidin-2-yl)methoxy)pyrazolo[5,1-a]isoquinoline-5-carboxamide], the IC50 at IRAK4 worked out at 2.6 nM; in assay [1], 1650 nM.

Consider `CC[C@@H]1CC(=O)N[C@@H]1COc1cccc2cc(C(N)=O)c3nccn3c12` [Example 2, 9-(((2S,3R)-3-ethyl-5-oxopyrrolidin-2-yl)methoxy)imidazo[1,2-a]quinoline-4-carboxamide], for which the IC50 on IRAK4 was determined as 15 nM; in assay [1] it was 306 nM.

With “1-(((2S,3S,4S)-3-ethyl-4-fluoro-5-oxotetrahydrofuran-2-yl)methoxy)-8-methyl-8,9-dihydrofuro[2,3-h]isoquinoline-6-carboxamide [Example 51]”, the IC50 amounted to 3.1 nM on IRAK4 and 399 nM in assay [1].

Consider `CC[C@H]1CC(=O)N[C@@H]1COc1cccc2cc(C(N)=O)c3nccn3c12` [Example 3, 9-(((2S,3S)-3-ethyl-5-oxopyrrolidin-2-yl)methoxy)imidazo[1,2-a]quinoline-4-carboxamide], for which the IC50 on IRAK4 was 1.7 nM; in assay [1] it was 152 nM.

For the molecule `CC[C@@H]1[C@H](F)C(=O)N[C@@H]1COC1=CC(F)=CC2C=C(C(N)=O)c3nccn3C12` (stereo partly drawn) [Example 58, 9-(((2S,3S,4S)-3-ethyl-4-fluoro-5-oxopyrrolidin-2-yl)methoxy)-7-fluoro-5a,9a-dihydroimidazo[1,2-a]quinoline-4-carboxamide], the IC50 at IRAK4 stood at 15.4 nM; in assay [1], 4230 nM.

Take `CC[C@H]1[C@@H](COc2cccc3cc(C(N)=O)c4nccn4c23)NC(=O)C1(F)F` [Example 10, 9-(((2S,3S)-3-ethyl-4,4-difluoro-5-oxopyrrolidin-2-yl)methoxy)imidazo[1,2-a]quinoline-4-carboxamide]: the 50% inhibitory concentration (IC50) on IRAK4 was 1.9 nM; in assay [1], 1390 nM.

On to `CC[C@@H]1CC(=O)N[C@@H]1COc1nccc2cc(C(N)=O)c3ncccc3c12` [Example 55, 1-(((2S,3R)-3-ethyl-5-oxopyrrolidin-2-yl)methoxy)-2,7-phenanthroline-6-carboxamide], for which the IC50 at IRAK4 turned out to be 15.3 nM; in assay [1], 879 nM.

Regarding `CC[C@H]1[C@@H](COc2nccc3cc(C(N)=O)c4nccn4c23)NC(=O)C1(F)F` [Example 20, 1-(((2S,3S)-3-ethyl-4,4-difluoro-5-oxopyrrolidin-2-yl)methoxy)imidazo[1,2-a][1,7]naphthyridine-6-carboxamide], the IC50 on IRAK4 is 8.8 nM; in assay [1], 158 nM.

Take `CC[C@@H]1OC(=O)N[C@@H]1COc1nccc2cc(C(N)=O)c3nccn3c12` [Example 22, 1-(((4R,5S)-5-ethyl-2-oxooxazolidin-4-yl)methoxy)imidazo[1,2-a][1,7]naphthyridine-6-carboxamide]: the half-maximal inhibitory concentration (IC50) at IRAK4 was found to be 2.1 nM; in assay [1], 4780 nM.

`CC[C@@H]1CC(=O)N[C@@H]1COc1ccc(F)c2cc(C(N)=O)c3nccn3c12` [Example 14, 9-(((2S,3R)-3-ethyl-5-oxopyrrolidin-2-yl)methoxy)-6-fluoroimidazo[1,2-a]quinoline-4-carboxamide]: the IC50 was 1 nM at IRAK4 and 557 nM in assay [1].

Regarding `CC[C@@H]1[C@H](F)C(=O)N[C@@H]1COc1nccc2cc(C(N)=O)n3nccc3c12` [Example 36, 1-(((2S,3S,4S)-3-ethyl-4-fluoro-5-oxopyrrolidin-2-yl)methoxy)pyrazolo[5,1-a][2,7]naphthyridine-6-carboxamide], the IC50 at IRAK4 is 0.7 nM; in assay [1], 159 nM.

`CC[C@@H]1[C@H](F)C(=O)N[C@@H]1COc1nccc2cc(C(N)=O)c3nc(C)cn3c12` [Example 19, 1-(((2S,3S,4S)-3-ethyl-4-fluoro-5-oxopyrrolidin-2-yl)methoxy)-8-methylimidazo[1,2-a][1,7]naphthyridine-6-carboxamide]: the values for the IC50 (on IRAK4; in assay [1]) were 3.2 nM and 485 nM, respectively.

In the case of `CC[C@@H]1[C@H](F)C(=O)N[C@@H]1COc1nccc2cc(C(N)=O)c3ncccc3c12` [Example 56, 1-(((2S,3S,4S)-3-ethyl-4-fluoro-5-oxopyrrolidin-2-yl)methoxy)-2,7-phenanthroline-6-carboxamide], the figures for the IC50 (at IRAK4; in assay [1]) were 2.8 nM and 2130 nM, respectively.

For `CC[C@H]1[C@@H](COc2nccc3cc(C(N)=O)c4ncnn4c23)NC(=O)C1(F)F` [Example 48, 9-(((2S,3S)-3-ethyl-4,4-difluoro-5-oxopyrrolidin-2-yl)methoxy)-[1,2,4]triazolo[1,5-a][1,7]naphthyridine-4-carboxamide], the figures for the IC50 (at IRAK4; in assay [1]) were 16.9 nM and 2250 nM, respectively.

For `CC[C@@H]1CC(=O)N[C@@H]1COc1nccc2cc(C(N)=O)c3nc(C)cn3c12` [Example 18, 1-(((2S,3R)-3-ethyl-5-oxopyrrolidin-2-yl)methoxy)-8-methylimidazo[1,2-a][1,7]naphthyridine-6-carboxamide], the IC50 on IRAK4 was 19.7 nM; in assay [1], 20000 nM.

Turning to `CC[C@@H]1[C@H](F)C(=O)N[C@@H]1COc1cccc2cc(C(N)=O)n3nccc3c12` [Example 34, 10-(((2S,3S,4S)-3-ethyl-4-fluoro-5-oxopyrrolidin-2-yl)methoxy)pyrazolo[5,1-a]isoquinoline-5-carboxamide], the IC50 at IRAK4 was determined as 0.9 nM; in assay [1], 279 nM.

As a reminder, the IC50 is the midpoint of a concentration-inhibition curve.
